Legend:
[1] = molecular target: T1, GFP-Plk4(K41M) in transfected HeLa cells (Homo sapiens, UniProt O00444, K41M); assay: Live-cell confocal/STED imaging of overexpressed Plk4; assay type: cell-based; details: 500 nM, live-cell STED, HeLa GFP-Plk4(K41M), N = 5
T1 construct: expressed in transfected cells; host or cells: HeLa
T1 sequence (O00444 1-970 K41M): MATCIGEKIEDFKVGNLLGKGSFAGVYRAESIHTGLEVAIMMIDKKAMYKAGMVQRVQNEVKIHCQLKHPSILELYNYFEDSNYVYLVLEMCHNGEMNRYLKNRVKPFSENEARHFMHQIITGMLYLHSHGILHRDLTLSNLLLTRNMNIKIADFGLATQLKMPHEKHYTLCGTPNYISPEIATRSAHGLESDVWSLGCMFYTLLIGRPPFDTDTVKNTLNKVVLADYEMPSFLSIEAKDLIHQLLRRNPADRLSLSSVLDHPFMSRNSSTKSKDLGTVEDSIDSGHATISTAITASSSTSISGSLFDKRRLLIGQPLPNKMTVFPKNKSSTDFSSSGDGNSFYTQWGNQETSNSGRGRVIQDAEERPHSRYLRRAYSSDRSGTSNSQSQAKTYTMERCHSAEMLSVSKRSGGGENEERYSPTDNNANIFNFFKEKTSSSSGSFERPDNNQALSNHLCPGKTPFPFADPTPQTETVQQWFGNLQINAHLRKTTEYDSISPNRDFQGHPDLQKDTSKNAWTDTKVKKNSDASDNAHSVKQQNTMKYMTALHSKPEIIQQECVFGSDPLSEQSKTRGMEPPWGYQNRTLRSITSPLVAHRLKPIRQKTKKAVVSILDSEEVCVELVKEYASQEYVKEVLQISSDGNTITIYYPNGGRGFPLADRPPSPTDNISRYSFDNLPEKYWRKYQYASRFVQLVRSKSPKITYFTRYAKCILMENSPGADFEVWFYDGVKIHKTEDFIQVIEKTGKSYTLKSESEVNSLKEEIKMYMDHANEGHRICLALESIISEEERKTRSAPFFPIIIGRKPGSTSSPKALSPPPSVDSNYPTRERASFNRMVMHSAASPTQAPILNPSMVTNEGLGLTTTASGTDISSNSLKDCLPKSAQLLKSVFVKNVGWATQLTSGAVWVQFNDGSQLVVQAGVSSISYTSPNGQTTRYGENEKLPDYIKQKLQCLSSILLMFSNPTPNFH

[2] = molecular target: T2, 6xHis-tagged Plk4 kinase domain (KD) (Homo sapiens, UniProt O00444); assay: Estimation of fluorescence increase (fluorogenicity) with Plk4 kinase domain versus BSA
T2 construct: Plasmids encoding fragments of Plk4 kinase domain (2-275) with 6xHis-tag were cloned in pET system vectors; made in house; host or cells: E. coli BL21 gold (DE3)
T2 sequence (O00444 2-275): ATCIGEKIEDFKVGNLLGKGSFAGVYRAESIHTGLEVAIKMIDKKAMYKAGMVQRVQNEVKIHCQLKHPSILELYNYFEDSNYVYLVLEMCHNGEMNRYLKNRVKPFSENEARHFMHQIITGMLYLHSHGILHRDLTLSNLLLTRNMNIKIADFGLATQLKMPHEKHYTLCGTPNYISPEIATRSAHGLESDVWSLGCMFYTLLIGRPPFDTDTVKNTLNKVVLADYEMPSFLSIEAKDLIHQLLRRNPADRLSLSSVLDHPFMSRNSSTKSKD
Text: Moreover, we substituted the basic acetyl-piperazine nitrogen in compounds (1 and 2a) with an acetyl-piperidine, to avoid probe protonation and accumulation in endolysosomal compartments (Figure S1A, B).[23] This yielded a second generation of centrinone-based probes (compounds 2b–d). These probes were characterized first in vitro by measuring their fluorogenicity in the presence of the 6xHis-tagged Plk4 kinase domain (KD) (Table 1). […] Next, we measured the binding affinities of the probes to the Plk4 kinase domain via a competition binding assay based on fluorescence polarization. […]
1.3.5 Estimation of fluorescence increase
The probes were analysed as described in Lukinavičius et al. 2014 1. Briefly, SiR650 or SiR595- […]
purified Plk4 kinase domain (10 µM in 20 mM Tris, 200 mM NaCl at pH 7.5) or to a bovine serum albumin (BSA) (Sigma) solution (0.2 mg/mL in 20 mM Tris, 200 mM NaCl at pH 7.5). Final concentration of the probe was 3 µM. The samples were incubated for 1 h at 37 °C, and fluorescence was measured in a 96-well plate (Greiner Bio-One) on a plate reader (TECAN Spark® 20M).
Fluorescence emission was recorded from 570 nm to 750 nm for SiR595 probes, and 630 nm to 750 nm for SiR650 while exciting at 550 nm ± 10 nm for SiR595 probes and at 610 ± 10 nm for SiR650 probes.
A fluorescence excitation scan was recorded by measuring the emission at 660 ± 10 nm for SiR595 and 720 ± 10 nm for SiR650 probes, while exciting from 500 nm to 640 nm for SiR595 probes and from […]

COc1c(Nc2cc(C)[nH]n2)nc(Sc2ccc(S(=O)(=O)Cc3cccc([N+](=O)[O-])c3F)cc2F)nc1N1CCC(CC(=O)NCCNC(=O)c2ccc(C(=O)O)c(C3=C4C=CC(=N)C=C4[Si](C)(C)c4cc(N)ccc43)c2)CC1 [2d]
diameter of the circular SiR595 signal [1]: 373 ± 36 nm
increase in fluorescence upon binding ([2]; in presence of Plk4 KD versus BSA): 36 fold
FPIk4/FBSA ([2]; mean of F(+Plk4KD)/F(+BSA) and standard deviation, N = 3, probe 3 µM, 1 h 37 °C): 36 ± 1
